# Laboratory results from PubChem BioAssay AID328 (DTP/NCI, 2004).
# Where “and” joins values, the source holds several entries; their conditions need not be identical. Identical values can stand only once. Toxic doses and inconclusive results are not listed.
# Test system: BDF1 mice, P388 leukemia ip, median survival T/C
# Assay: NCI In Vivo Anticancer Drug Screen. Data for tumor model P388 Leukemia (intraperitoneal) in B6D2F1 (BDF1) mice
# Conditions: endpoint: median survival time, higher = longer survival
# Procedure, shortened: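 In tumour-bearing mice, survival after compound treatment is set against the vehicle group and given as a quotient.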
# [1] = dose: 100.0 mg/kg/injection, schedule: Q01DX009 (ip), vehicle: water
# [2] = dose: 100.0 mg/kg/injection, schedule: Q04DX003 (ip), vehicle: water
# [3] = dose: 200.0 mg/kg/injection, schedule: Q01DX009 (ip), vehicle: water
# [4] = dose: 200.0 mg/kg/injection, schedule: Q04DX003 (ip), vehicle: water
# [5] = dose: 400.0 mg/kg/injection, schedule: Q01DX009 (ip), vehicle: water
# [6] = dose: 400.0 mg/kg/injection, schedule: Q04DX003 (ip), vehicle: water
# [7] = dose: 50.0 mg/kg/injection, schedule: Q01DX009 (ip), vehicle: saline with Tween-80
# [8] = dose: 100.0 mg/kg/injection, schedule: Q01DX009 (ip), vehicle: saline with Tween-80
# [9] = dose: 200.0 mg/kg/injection, schedule: Q01DX009 (ip), vehicle: saline with Tween-80
# [10] = dose: 100.0 mg/kg/injection, schedule: Q04DX003 (ip), vehicle: Klucel (hydroxypropylcellulose) (HPC)
# [11] = dose: 200.0 mg/kg/injection, schedule: Q01DX009 (ip), vehicle: Klucel (hydroxypropylcellulose) (HPC)
# [12] = dose: 200.0 mg/kg/injection, schedule: Q04DX003 (ip), vehicle: Klucel (hydroxypropylcellulose) (HPC)
# [13] = dose: 400.0 mg/kg/injection, schedule: Q01DX009 (ip), vehicle: Klucel (hydroxypropylcellulose) (HPC)
# [14] = dose: 400.0 mg/kg/injection, schedule: Q04DX003 (ip), vehicle: Klucel (hydroxypropylcellulose) (HPC)
# [15] = dose: 100.0 mg/kg/injection, schedule: Q01DX009 (ip), vehicle: Klucel (hydroxypropylcellulose) (HPC)
# [16] = dose: 50.0 mg/kg/injection, schedule: Q01DX009 (ip), vehicle: saline
# [17] = dose: 100.0 mg/kg/injection, schedule: Q01DX009 (ip), vehicle: saline
# [18] = dose: 200.0 mg/kg/injection, schedule: Q01DX009 (ip), vehicle: saline
# [19] = dose: 400.0 mg/kg/injection, schedule: Q01DX009 (ip), vehicle: saline
compound,measurement,setting,value
CCOC(=O)/C=C(\C)Nc1ccc(NC(C)=O)cc1,T/C,"dose: 25.0 mg/kg/injection, schedule: Q01DX009 (ip), vehicle: water",91 % of control
same,T/C,"dose: 50.0 mg/kg/injection, schedule: Q01DX009 (ip), vehicle: water",89 % of control
same,T/C,"dose: 50.0 mg/kg/injection, schedule: Q04DX003 (ip), vehicle: water",106 % of control
same,T/C,[1],94 % of control
same,T/C,[2],111 % of control
same,T/C,[3],110 % of control
same,T/C,[4],120 % of control
same,T/C,[5],94 % of control
same,T/C,[6],103 % of control
CCOP(=S)(N1CC1(C)C)N1CC1(C)C (stereo not drawn),T/C,"dose: 264.0 mg/kg/injection, schedule: Q04DX003 (ip), vehicle: saline with Tween-80",229 % of control
CC1(C)CC2(C)OC2C2(C1)N=NC(=O)O2 (stereo not drawn),T/C,[7],98 % of control
same,T/C,[8],107 % of control
same,T/C,[9],121 % of control
O=C(/C=C/c1ccc(OCc2ccccc2)cc1)c1ccccc1Br,T/C,[7],96 % of control
same,T/C,[8],107 % of control
same,T/C,[9],105 % of control
COc1cc(/C=N/NC(=O)c2ccncc2)cc(OC)c1OC,T/C,[10],104 % of control
same,T/C,[11],122 % of control
same,T/C,[12],109 % of control
same,T/C,[13],122 % of control
same,T/C,[14],100 % of control
Nc1ccc(Cl)cc1C(=O)c1ccc[nH]1,T/C,[15],100 % of control
same,T/C,[10],100 % of control
same,T/C,[11],95 % of control
same,T/C,[12],100 % of control
same,T/C,[13],100 % of control
same,T/C,[14],95 % of control
CCCCCCC(c1c(O)cc(C)[nH]c1=O)c1c(O)cc(C)[nH]c1=O,T/C,[7],96 % of control
same,T/C,[8],96 % of control
same,T/C,[9],90 % of control
NC(=S)N/N=C\c1ncnc2nc[nH]c12,T/C,"dose: 1.0 mg/kg/injection, schedule: Q01DX009 (ip), vehicle: Klucel (hydroxypropylcellulose) (HPC)",107 % of control
same,T/C,"dose: 2.0 mg/kg/injection, schedule: Q01DX009 (ip), vehicle: Klucel (hydroxypropylcellulose) (HPC)",111 % of control
same,T/C,"dose: 4.0 mg/kg/injection, schedule: Q01DX009 (ip), vehicle: Klucel (hydroxypropylcellulose) (HPC)",150 % of control
same,T/C,"dose: 8.0 mg/kg/injection, schedule: Q01DX009 (ip), vehicle: Klucel (hydroxypropylcellulose) (HPC)",160 % of control
same,T/C,"dose: 16.0 mg/kg/injection, schedule: Q01DX009 (ip), vehicle: Klucel (hydroxypropylcellulose) (HPC)",175 % of control
same,T/C,"dose: 32.0 mg/kg/injection, schedule: Q01DX009 (ip), vehicle: Klucel (hydroxypropylcellulose) (HPC)",185 % of control
Cc1cc(=O)[nH]c2c1CCCC2,T/C,"dose: 37.5 mg/kg/injection, schedule: Q01DX009 (ip), vehicle: saline with Tween-80",92 % of control
same,T/C,"dose: 75.0 mg/kg/injection, schedule: Q01DX009 (ip), vehicle: saline with Tween-80",99 % of control and 118 % of control
same,T/C,"dose: 150.0 mg/kg/injection, schedule: Q01DX009 (ip), vehicle: saline with Tween-80",103 % of control
same,T/C,"dose: 300.0 mg/kg/injection, schedule: Q01DX009 (ip), vehicle: saline with Tween-80",91 % of control
C[C@]12CC[C@@H]3c4ccc(O)cc4CC[C@H]3[C@@H]1CC[C@@H]2O,T/C,[15],90 % of control
same,T/C,[10],100 % of control
same,T/C,[12],100 % of control
same,T/C,[13],95 % of control
same,T/C,[14],115 % of control
C1CC[N-]CC1.C1CC[N-]CC1.C1CC[N-]CC1.C1CC[N-]CC1.CC(=N\[O-])/C(C)=N/O.CC(=N\[O-])/C(C)=N/O.[Cl-].[Cl-].[Cl][Rh][Cl].[Rh+3],T/C,[16],98 % of control
same,T/C,[17],86 % of control
same,T/C,[18],86 % of control
same,T/C,[19],95 % of control
O=c1oc2ccccc2cc1-c1csc(/C=N/N2CCOCC2)n1,T/C,[7],113 % of control
same,T/C,[8],104 % of control
CCCCCCCCCCCCCCCC(=O)OCCCCCCCCCC,T/C,"dose: 25.0 mg/kg/injection, schedule: Q04DX003 (ip), vehicle: saline with Tween-80",100 % of control
same,T/C,"dose: 50.0 mg/kg/injection, schedule: Q04DX003 (ip), vehicle: saline with Tween-80",100 % of control
same,T/C,"dose: 100.0 mg/kg/injection, schedule: Q04DX003 (ip), vehicle: saline with Tween-80",100 % of control
CCN(/C=C/C=C1C(=O)N(C)C(=O)N(C)C1=O)CC,T/C,[16],100 % of control
same,T/C,[17],102 % of control
same,T/C,[18],100 % of control
CC(=O)/C(N=Nc1ccccc1)=C(\C)O,T/C,"dose: 25.0 mg/kg/injection, schedule: Q01DX009 (sc), vehicle: olive oil, sesame oil, peanut oil",100 % of control
same,T/C,"dose: 50.0 mg/kg/injection, schedule: Q01DX009 (sc), vehicle: olive oil, sesame oil, peanut oil",96 % of control
same,T/C,"dose: 100.0 mg/kg/injection, schedule: Q01DX009 (sc), vehicle: olive oil, sesame oil, peanut oil",112 % of control
CC(NC(=O)C(N)C(C)C)C(=O)O (stereo not drawn),T/C,"dose: 50.0 mg/kg/injection, schedule: Q01DX005 (ip), vehicle: saline",92 % of control
same,T/C,"dose: 100.0 mg/kg/injection, schedule: Q01DX005 (ip), vehicle: saline",97 % of control
same,T/C,"dose: 200.0 mg/kg/injection, schedule: Q01DX005 (ip), vehicle: saline",92 % of control
CC(=O)Nc1ccc(C=O)cc1[N+](=O)[O-],T/C,[15],110 % of control
same,T/C,[11],100 % of control
same,T/C,[13],100 % of control
COc1cc2c(c3c1c(=O)c1cc(O)ccc1n3C)C=CC(C)(C)O2,T/C,"dose: 5.0 mg/kg/injection, schedule: Q01DX009 (ip), vehicle: Klucel (hydroxypropylcellulose) (HPC)",114 % of control
same,T/C,"dose: 10.0 mg/kg/injection, schedule: Q01DX009 (ip), vehicle: Klucel (hydroxypropylcellulose) (HPC)",113 % of control
same,T/C,"dose: 20.0 mg/kg/injection, schedule: Q01DX009 (ip), vehicle: Klucel (hydroxypropylcellulose) (HPC)",112 % of control
same,T/C,"dose: 40.0 mg/kg/injection, schedule: Q01DX009 (ip), vehicle: Klucel (hydroxypropylcellulose) (HPC)",106 % of control
COC(=O)C1C(O)C(C)C(=O)C(C)/C=C\C=C(C)C(=O)Nc2c(C)c(OC(C)=O)c3c(c2O)C(=O)C(C)=C2OCOC(=C23)C(C)=CC(C)(O)C(O)C(C)C1O (stereo not drawn),T/C,[15],101 % of control
same,T/C,[11],101 % of control
same,T/C,[13],101 % of control
C[C@]12CC[C@H]3C(=CCc4cc(O)ccc43)[C@@H]1CCC2=O,T/C,[10],95 % of control
same,T/C,[11],91 % of control
same,T/C,[12],90 % of control
same,T/C,[14],95 % of control
CCOC(=O)c1c(-c2ccccc2)cn2c1OC(C)CC2(C)C (stereo not drawn),T/C,"dose: 50.0 mg/kg/injection, schedule: Q01DX001 (ip), vehicle: saline sonified",100 % of control
same,T/C,"dose: 100.0 mg/kg/injection, schedule: Q01DX001 (ip), vehicle: saline sonified",100 % of control
same,T/C,"dose: 200.0 mg/kg/injection, schedule: Q01DX001 (ip), vehicle: saline sonified",95 % of control
Nc1ncnc2nc[nH]c12.[Cl][Pt][Cl],T/C,[1],114 % of control
same,T/C,[2],93 % of control
same,T/C,[3],118 % of control
same,T/C,[4],98 % of control
same,T/C,[5],104 % of control
same,T/C,[6],98 % of control
CC/C(=N\NS(=O)(=O)c1ccc(C)cc1)c1ccc(OC)c(OC)c1,T/C,[16],96 % of control
same,T/C,[17],96 % of control
same,T/C,[18],92 % of control
O=c1[nH]cnc2c1ncn2C1OC(CF)C(O)C1O (stereo not drawn),T/C,"dose: 100.0 mg/kg/injection, schedule: Q01DX001 (ip), vehicle: saline",108 % of control
same,T/C,[17],86 % of control
same,T/C,"dose: 200.0 mg/kg/injection, schedule: Q01DX001 (ip), vehicle: saline",108 % of control
same,T/C,[18],91 % of control
same,T/C,"dose: 400.0 mg/kg/injection, schedule: Q01DX001 (ip), vehicle: saline",108 % of control
same,T/C,[19],86 % of control
Cc1ccc(S(=O)(=O)CC#CCOc2ccccc2)cc1,T/C,"dose: 50.0 mg/kg/injection, schedule: Q04DX003 (ip), vehicle: saline",100 % of control
same,T/C,"dose: 100.0 mg/kg/injection, schedule: Q04DX003 (ip), vehicle: saline",100 % of control
same,T/C,"dose: 200.0 mg/kg/injection, schedule: Q04DX003 (ip), vehicle: saline",104 % of control
